US20120142623A1, “Compositions And Methods For Predicting Inhibitors Of Protein Targets” (priority 2006, published 2012)
Several values for one entry are separate records, joined by “and”; a condition that tells them apart may be missing. Identical values can stand only once. Like-named read-outs stand apart in the source and are kept apart here.

Experiments:
[1] = molecular target: Integrase (Human immunodeficiency virus type 1 group M subtype B, UniProt P04585)
[2] = molecular target: Reverse transcriptase (Human immunodeficiency virus type 1 group M subtype B, UniProt P04585)
[3] = molecular target: Tat (Human immunodeficiency virus type 1 group M subtype B, UniProt P04608)
[4] = tested on: chloroquine-sensitive strain 3D7 of P. falciparum; assay: P. falciparum growth inhibition in culture, strain 3D7; type: cell-based, Plasmodium falciparum; conditions: for experimentally determined to work: P. falciparum ED50 in 3D7 and K1
[5] = tested on: chloroquine-resistant strain K1 of P. falciparum; assay: P. falciparum growth inhibition in culture, strain K1; type: cell-based, Plasmodium falciparum
[6] = tested on: P. falciparum; conditions: Table 3 section B, high throughput screen [27, 28], cited from earlier work; for EC50: read-out: ED50 in 3D7
[7] = tested on: HIV-1; conditions: HIV-1, target Unknown, cited from earlier work
[8] = molecular target: Vpr (Human immunodeficiency virus type 1 group M subtype B, UniProt P12520); conditions: read-out: Inhibitory effect (uM), EC50, Vpr; HIV-1 target Vpr; cited from earlier work
[9] = molecular target: HSV protease; assay: Surface Plasmon Resonance, HSV protease; type: binding; conditions: SPR, FIG. 4
Method: (§1) Four inhibitors were evaluated; our top ranking one (TMPyP4) clearly binds to all three proteases as predicted. […] A third inhibitor, GW8510, predicted to bind fails (i.e., a misprediction). […] Our inhibitor prediction is completely consistent with the observed experimental data which is verified further by cell culture studies in FIG. 4 and compared to existing antiherpes drugs.

[10] = molecular target: CMV protease (Human cytomegalovirus, UniProt P16753); assay: Surface Plasmon Resonance, CMV protease; type: binding; parameters: herpes simplex virus (HSV) proteases (including HSV2, VZV, EBV, CMV, and KSHV); conditions: SPR, FIG. 4
Method: as §1

[11] = molecular target: KSHV protease (Human herpesvirus 8 type P, UniProt Q2HRB6); assay: Surface Plasmon Resonance, KSHV protease; type: binding; parameters: herpes simplex virus (HSV) proteases (including HSV2, VZV, EBV, CMV, and KSHV); conditions: SPR, FIG. 4
Method: as §1

[12] = molecular target: Protease (Human immunodeficiency virus type 1 group M subtype B, UniProt P04585); conditions: HIV-1 target Protease; read-out: Inhibitory effect (uM), IC50, Protease; cited from earlier work
[13] = tested on: plasmepsin enzyme target from the malarial parasite Plasmodium malariae; conditions: complexes solved by x-ray diffraction (1msm, 2anl); cited from earlier work
[14] = molecular target: T1, gp120 (Human immunodeficiency virus type 1 group M subtype B, UniProt P03375); conditions: read-out: Inhibitory effect (uM), ED50, gp120; HIV-1 target gp120; cited from earlier work
T1 construct: V3 region of HIV-1 envelope glycoprotein gp120 to galactosylceramide

[15] = tested on: HSV-1 strain F; assay: HSV-1 infection of Vero cells, virus titer; type: cell-based; conditions: FIG. 5 bottom right panel; virus not named
[16] = tested on: gp41; conditions: HIV-1 target gp41; read-out: Inhibitory effect (uM), IC50, gp41; cited from earlier work
[17] = tested on: HIV-1 gp41 HR1 wild-type and mutants; conditions: cited from earlier work
[18] = HIV-1 target Tat; read-out: Inhibitory effect (uM), IC50, Tat; cited from earlier work
[19] = Table 3 section A, mean of at least two measurements, read-out: ED50 in 3D7
[20] = Table 5, read-out: ED50 (μM) in 3D7
[21] = HIV-1 target Integrase; read-out: Inhibitory effect (uM), IC50, Integrase; cited from earlier work

Question: Which IC50 ([1]; read-out: Inhibitory effect (uM), IC50, Integrase; HIV-1 target Integrase; cited from earlier work) does the source give for `CCN(CC)CCCC(C)Nc1ccnc2cc(Cl)ccc12` (stereo not shown) [Chloroquine] here?
Answer: The IC50 was 5.14 µM.

Question: What about the IC50 ([2]; read-out: Inhibitory effect (uM), IC50, Reverse transcriptase; HIV-1 target Reverse transcriptase; cited from earlier work) of the same compound?
Answer: The IC50 was over 300 µM.

Question: What about the IC50 ([3]; read-out: Inhibitory effect (uM), IC50, Tat; HIV-1 target Tat; cited from earlier work) of the same compound?
Answer: Its IC50 is under 50 µM.

Question: Which IC50 [3, 18] does the source give for `COc1cc(/C=C/C(=O)CC(=O)/C=C/c2ccc(O)c(OC)c2)ccc1O` [Curcumin] here?
Answer: Its IC50 is under 30 µM.

Question: Which results are given for `COc1cccc2c1C(=O)c1c(O)c3c(c(O)c1C2=O)C[C@@](O)(C(C)=O)C[C@@H]3O[C@H]1C[C@H](N)[C@H](O)[C@H](C)O1` [Daunorubicin]?
Answer: EC50 ([4]; Plasmodium falciparum, 3D7, Table 3 section A, mean of at least two measurements, read-out: ED50 in 3D7): 0.13 µM; EC50 ([4]; Plasmodium falciparum, 3D7, Table 5, read-out: ED50 (μM) in 3D7): 0.125 µM; experimentally determined to work ([4]; Table 5): Y (Y—yes (<=1uM ED50)); result of the 16 tested inhibitors in words (binding) ([4]; summary of Table 5): very strong binding; EC50 ([5]; Plasmodium falciparum, K1, Table 3 section A, mean of at least two measurements, read-out: ED50 in K1): < 1 µM; EC50 ([5]; Plasmodium falciparum, K1, Table 5, read-out: ED50 (μM) in K1): < 1 µM; % Inhibition at 10 μM in [6]: 99.6%

Question: For `CN1C[C@H](C(=O)N[C@]2(C)O[C@@]3(O)[C@@H]4CCCN4C(=O)[C@H](Cc4ccccc4)N3C2=O)C[C@@H]2c3cccc4[nH]cc(c34)C[C@H]21` [Dihydroergotamine], which “% Inhibition at 10 μM in” value [6] is on record?
Answer: The value was 88.1%.

Question: And the EC50 [6]?
Answer: Its EC50 is 4000 nM and 3000 nM.

Question: With `CCC(C)c1c(O[C@H]2C[C@@H](O[C@H]3C[C@@H](O)[C@H](O)[C@@H](C)O3)[C@H](O)[C@@H](C)O2)cc2cc3c(c(O)c2c1O)C(=O)C(O[C@H]1C[C@@H](O[C@H]2C[C@@H](O[C@H]4C[C@@H](O[C@H]5C[C@@H](O)[C@H](O)[C@@H](C)O5)[C@H](O)[C@@H](C)O4)[C@@H](OC(C)=O)[C@@H](C)O2)[C@H](O)[C@@H](C)O1)C(C(OC)C(=O)C(O)C(C)O)C3` (stereo partly shown) [Durhamycin A] as the compound, how does the IC50 [3, 18] read?
Answer: Its IC50 is 0.0048 µM.

Question: Which EC50 ([7]; read-out: Inhibitory effect (uM), EC50, target Unknown) does the source give for `CC(C)S(=O)(=O)n1c(N)nc2ccc(/C(=N/O)c3ccccc3)cc21` [Enviroxime] here?
Answer: The EC50 was over 36.5 µM.

Question: For `COc1cccc2c1C(=O)c1c(O)c3c(c(O)c1C2=O)C[C@@](O)(C(=O)CO)C[C@@H]3O[C@H]1C[C@H](N)[C@@H](O)[C@H](C)O1` [Epirubicin], which “% Inhibition at 10 μM in” value [6] is on record?
Answer: The value was 98.4%.

Question: For `CO[C@@H]1[C@H](OC(=O)/C=C/C=C/C=C/C=C/C(=O)O)CC[C@]2(CO2)[C@H]1[C@@]1(C)O[C@@H]1CC=C(C)C` [Fumagillin], which EC50 [8] is on record?
Answer: Its EC50 is 0.015 µM.

Question: And the EC50 ([7]; printed EC, read-out: Inhibitory effect (uM), EC, target Unknown)?
Answer: The EC50 was over 0.2 µM.

Question: With `O=C1Nc2ccc3ncsc3c2/C1=C/Nc1ccc(S(=O)(=O)Nc2ccccn2)cc1` [GW8510] as the compound, how does the EC50 [4, 19] read?
Answer: The EC50 was 1 to 10 µM.

Question: And the “experimentally determined to work” value ([4]; Table 5)?
Answer: The value was “N”.

Question: What about the EC50 [4, 20] of the same compound?
Answer: Its EC50 is 1 to 10 µM.

Question: And the EC50 ([5]; Table 3 section A, mean of at least two measurements, read-out: ED50 in K1)?
Answer: The EC50 was 1 µM.

Question: What about the EC50 ([5]; Table 5, read-out: ED50 (μM) in K1) of the same compound?
Answer: Its EC50 is 1 µM.

Question: What about the “disassociation constant (Kd), HSV protease” value [9] of the same compound?
Answer: Its value is “fails”.

Question: And the “disassociation constant (Kd), CMV protease” value [10]?
Answer: The value was “fails”.

Question: What about the “disassociation constant (Kd), KSHV protease” value [11] of the same compound?
Answer: The value was “fails”.

Question: Which IC50 [1, 21] does the source give for `CCN(CCO)CCCC(C)Nc1ccnc2cc(Cl)ccc12` (stereo not shown) [Hydroxychloroquine] here?
Answer: Its IC50 is over 100 µM.

Question: Which results are given for `Cc1ccccc1CNC(=O)[C@H]1N(C(=O)[C@@H](O)[C@H](Cc2ccccc2)NC(=O)c2cccc(O)c2C)CSC1(C)C` [KNI-764]?
Answer: IC50 [12]: > 0.05 µM; inhibition of HIV-1 protease and plasmepsin [13]: inhibits both HIV-1 protease and the plasmepsin enzyme target

Question: What does the source list for `CN1C[C@H](CNC(=O)OCc2ccccc2)C[C@@H]2c3cccc4c3c(cn4C)C[C@H]21` [Metergoline]?
Answer: % Inhibition at 10 μM in [6]: 85.9%; EC50 [6]: 5400 nM

Question: With `CN(Cc1cnc2nc(N)nc(N)c2n1)c1ccc(C(=O)N[C@@H](CCC(=O)O)C(=O)O)cc1` [Methotrexate] as the compound, how does the “% Inhibition at 10 μM in” value [6] read?
Answer: Its value is 98.4%.

Question: And the EC50 [6]?
Answer: The EC50 was 50 nM.

Question: Which IC50 ([2]; HIV-1 target Reverse transcriptase; read-out: Inhibitory effect (uM), IC50, Reverse transcriptase; cited from earlier work) does the source give for `CN(C)c1ccc(O)c2c1C[C@H]1C[C@H]3[C@H](N(C)C)C(O)=C(C(N)=O)C(=O)[C@@]3(O)C(O)=C1C2=O` [Minocycline] here?
Answer: Its IC50 is 1200 µM.

Question: Which “% Inhibition at 10 μM in” value [6] does the source give for `COc1ccc(C[C@H](N)C(=O)N[C@H]2[C@@H](O)[C@H](n3cnc4c(N(C)C)ncnc43)O[C@@H]2CO)cc1` [Puromycin] here?
Answer: Its value is 98.9%.

Question: With `O=C(c1ccc(OCCN2CCCCC2)cc1)c1c(-c2ccc(O)cc2)sc2cc(O)ccc12` [Raloxifene] as the compound, how does the “% Inhibition at 10 μM in” value [6] read?
Answer: The value was 97.1%.

Question: And the EC50 [6]?
Answer: Its EC50 is under 500 nM.

Question: With `Cc1nc2n(c(=O)c1CCN1CCC(c3noc4cc(F)ccc34)CC1)CCCC2` [Risperidone] as the compound, how does the “% Inhibition at 10 μM in” value [6] read?
Answer: The value was 67.5%.

Question: Which EC50 [4, 19] does the source give for `CN(C)S(=O)(=O)c1ccc2c(c1)/C(=C/c1cc3c([nH]1)CCCC3)C(=O)N2` [SU6656] here?
Answer: Its EC50 is over 40 µM.

Question: And the “experimentally determined to work” value ([4]; Table 5)?
Answer: The value was “N”.

Question: And the EC50 [4, 20]?
Answer: The EC50 was 10 µM.

Question: What about the “disassociation constant (Kd), HSV protease” value [9] of the same compound?
Answer: The value was “verified to not bind”.

Question: And the “disassociation constant (Kd), CMV protease” value [10]?
Answer: Its value is “verified to not bind”.

Question: What about the “disassociation constant (Kd), KSHV protease” value [11] of the same compound?
Answer: The value was “verified to not bind”.

Question: What does the source list for `Cc1ccc(C(=O)Nc2ccc(S(=O)(=O)O)c3cc(S(=O)(=O)O)cc(S(=O)(=O)O)c23)cc1NC(=O)c1cccc(NC(=O)Nc2cccc(C(=O)Nc3cc(C(=O)Nc4ccc(S(=O)(=O)O)c5cc(S(=O)(=O)O)cc(S(=O)(=O)O)c45)ccc3C)c2)c1` [Suramin]?
Answer: IC50 [1, 21]: 2.4 µM; EC50 [14]: 7.7 µM

Question: Which “% Inhibition at 10 μM in” value [6] does the source give for `CC[C@@]1(O)C(=O)OCc2c1cc1n(c2=O)Cc2cc3c(CN(C)C)c(O)ccc3nc2-1` [Topotecan] here?
Answer: The value was 80.1%.

Question: For `CC[C@]1(O)C[C@@H]2CN(CCc3c([nH]c4ccccc34)[C@@](C(=O)OC)(c3cc4c(cc3OC)N(C)[C@H]3[C@@](O)(C(N)=O)[C@H](O)[C@]5(CC)C=CCN6CC[C@]43[C@@H]65)C2)C1` [Vindesine], which “% Inhibition at 10 μM in” value [6] is on record?
Answer: The value was 81.9%.

Question: With `Nc1nc2c(ncn2COCCO)c(=O)[nH]1` [acylovir] as the compound, how does the “effectiveness after passage for several cycles with both acylovir and TMPyP4” value [15] read?
Answer: Its value is “complete resistance to acylovir occurs”.

Question: Which IC50 [16] does the source give for Amphotericin B here?
Answer: Its IC50 is over 10 µM.

Question: Which “EC50” value ([17]; HR1 Wild-type) does the source give for enfuvirtide here?
Answer: The value was 0.012 mg/L.

Question: What about the “EC50” value ([17]; HR1 mutation N42T + N43K) of the same compound?
Answer: The value was 0.388 mg/L.

Question: What about the “EC50” value ([17]; HR1 mutation N42T + N43S) of the same compound?
Answer: Its value is 0.727 mg/L.

Question: What about the “EC50” value ([17]; HR1 mutation N42T) of the same compound?
Answer: The value was 0.045 mg/L.

Question: And the “EC50” value ([17]; HR1 mutation V38A + N42D)?
Answer: Its value is 1.685 mg/L.

Question: What about the “EC50” value ([17]; HR1 mutation V38A + N42T) of the same compound?
Answer: Its value is 1.782 mg/L.

Question: And the “EC50” value ([17]; HR1 mutation V38A)?
Answer: The value was 0.188 mg/L.

Question: And the “EC50” value ([17]; HR1 mutation V38E + N42S)?
Answer: Its value is 6.156 mg/L.
